According to patent US20200392158A1, “INHIBITORS OF LEUCINE RICH REPEAT KINASE 2” (GLAXOSMITHKLINE INTELLECTUAL PROPERTY DEVELOPMENT LIMITED, priority 2017, published 2020):

Target: T1, full length G2019 human LRRK2 (Homo sapiens, UniProt Q5S007, R50H)
T1 construct: made in house; host or cells: HEK293 6E cells transduced with BacMam virus (virus generated in Sf9 cells)
Assay: Full length G2019 human LRRK2 inhibition mass spectrometry assay
Assay type: biochemical
Details: LRRKtide to phospho-LRRKtide conversion, RapidFire MS, 2 mM ATP
Protocol: a. Full Length G2019 Human LRRK2 Inhibition Mass Spectrometry Assay
This assay for Leucine Rich Repeat Kinase 2 (LRRK2) inhibition is based on the direct measurement of the peptide ‘LRRKtide’ (LRRKtide: RLGRDKYKT*LRQIRQ and “*” refers to the site of phosphorylation.) and phosphorylated ‘LRRKtide’ using a high throughput Rapid Fire mass spectrometry assay. Inhibitors are compounds that reduce the conversion of LRRKtide to phospho-LRRKtide.
• 1) Compounds were dissolved in 100% DMSO at a concentration of 10 mM, and 11-point dose response curves generated using a 1 in 4 serial dilution in DMSO. 100 nL of this dilution series was then added to a 384 well, v bottom polypropylene plate (Greiner 781280), excluding columns 6 and 18. 100 nL of DMSO were added to column 6 to serve as the high control, while column 18 served as the low control containing assay buffer in place of the LRRK2 protein. Assay dilution gave a top final assay concentration of test compound of […] • 2) 5 μL of ‘enzyme solution’ containing 2× final assay concentration of purified recombinant Full length Flag-LRRK2 in assay buffer (50 mM Hepes, pH 7.2, 10 mM MgCl2, 150 mM NaCl, 5% glycerol, 0.0025% Triton X-100 and 1 mM DTT) were added to all wells using a Multidrop Combi dispenser (ThermoFisher Scientifiec), giving a final assay concentration of 25 nM LRRK2 enzyme (final concentration may vary depending on specific activity of different enzyme batches). • 3) 5 μL of substrate solution containing 50 μM LRRKtide peptide substrate and […] was added to all wells of the plate using a Multidrop Combi dispenser giving a final assay concentration of 25 μM LRRKtide peptide and 2 mM ATP. Test plates were then incubated for 1 hour at room temperature. (Incubation may vary depending on rate and linearity of reaction with different enzyme batches). • 4) 50 μl of 1% formic acid in laboratory grade water was added to all wells to quench the reaction, and plates were heat-sealed prior to centrifugation at 1348×g for 10 minutes. Test plates were then analysed on an Agilent RapidFire High Throughput solid phase extraction system coupled to AB Sciex API 4000 triple quadropole mass spectrometer with the following setting:
• Sip Height=2 mm, Aspirate=500 ms, Load time=3000 ms, Elution time=3000 ms, Requilibration=500 ms. • Flow rates: pump 1=1.5 mL/min, pump 2 1.25 mL/min pump 3=0.8 mL/min
Mass Spectrometer Settings: • LRRKtide Detection settings: Q1 mass 644.8 Da, Q3 mass 638.8, declustering potential 76 volts, collision energy 37 volts, CXP 34 volts. • Phospho-LRRKtide Detection settings: Q1 mass 671.4 Da, Q3 mass 638.8, Declustering potential 76 volts, Collision energy 37 volts, CXP 34 volts. • A C4 cartridge was used and running buffers were: A (aqueous) 0.1% formic acid in water B (organic) 0.1% formic acid, 80% acetonitrile, 20% water. • Collision gas: 12, Curtain gas: 25, Ion Source gas (1): 60, Ion Source gas (2): 60, Ion Spray Voltage: 5500, Temperature: 600, Interface Heater: ON. • Resolution Q1: low, Resolution Q3: low. • 5) Data were analysed using ActivityBase software (IDBS). A percent conversion from LRRKtide to Phospho-LRRKtide was calculated using the following formula:
% conversion=(Phospho-LRRKtide product peak area/(Phospho-LRRKtide product peak area+LRRKtide substrate peak area))*100 • A logistic 4 parameter curve fit was applied, using the following formula,
[formula] • Where x is the concentration of test sample, y is inhibition (%), a is the minimum, b is the Hill slope, c is the IC50 and d is the maximum. From this, the pIC50 was derived (−log IC50).

T1 sequence (Q5S007 with tags, fused parts or gaps R50H): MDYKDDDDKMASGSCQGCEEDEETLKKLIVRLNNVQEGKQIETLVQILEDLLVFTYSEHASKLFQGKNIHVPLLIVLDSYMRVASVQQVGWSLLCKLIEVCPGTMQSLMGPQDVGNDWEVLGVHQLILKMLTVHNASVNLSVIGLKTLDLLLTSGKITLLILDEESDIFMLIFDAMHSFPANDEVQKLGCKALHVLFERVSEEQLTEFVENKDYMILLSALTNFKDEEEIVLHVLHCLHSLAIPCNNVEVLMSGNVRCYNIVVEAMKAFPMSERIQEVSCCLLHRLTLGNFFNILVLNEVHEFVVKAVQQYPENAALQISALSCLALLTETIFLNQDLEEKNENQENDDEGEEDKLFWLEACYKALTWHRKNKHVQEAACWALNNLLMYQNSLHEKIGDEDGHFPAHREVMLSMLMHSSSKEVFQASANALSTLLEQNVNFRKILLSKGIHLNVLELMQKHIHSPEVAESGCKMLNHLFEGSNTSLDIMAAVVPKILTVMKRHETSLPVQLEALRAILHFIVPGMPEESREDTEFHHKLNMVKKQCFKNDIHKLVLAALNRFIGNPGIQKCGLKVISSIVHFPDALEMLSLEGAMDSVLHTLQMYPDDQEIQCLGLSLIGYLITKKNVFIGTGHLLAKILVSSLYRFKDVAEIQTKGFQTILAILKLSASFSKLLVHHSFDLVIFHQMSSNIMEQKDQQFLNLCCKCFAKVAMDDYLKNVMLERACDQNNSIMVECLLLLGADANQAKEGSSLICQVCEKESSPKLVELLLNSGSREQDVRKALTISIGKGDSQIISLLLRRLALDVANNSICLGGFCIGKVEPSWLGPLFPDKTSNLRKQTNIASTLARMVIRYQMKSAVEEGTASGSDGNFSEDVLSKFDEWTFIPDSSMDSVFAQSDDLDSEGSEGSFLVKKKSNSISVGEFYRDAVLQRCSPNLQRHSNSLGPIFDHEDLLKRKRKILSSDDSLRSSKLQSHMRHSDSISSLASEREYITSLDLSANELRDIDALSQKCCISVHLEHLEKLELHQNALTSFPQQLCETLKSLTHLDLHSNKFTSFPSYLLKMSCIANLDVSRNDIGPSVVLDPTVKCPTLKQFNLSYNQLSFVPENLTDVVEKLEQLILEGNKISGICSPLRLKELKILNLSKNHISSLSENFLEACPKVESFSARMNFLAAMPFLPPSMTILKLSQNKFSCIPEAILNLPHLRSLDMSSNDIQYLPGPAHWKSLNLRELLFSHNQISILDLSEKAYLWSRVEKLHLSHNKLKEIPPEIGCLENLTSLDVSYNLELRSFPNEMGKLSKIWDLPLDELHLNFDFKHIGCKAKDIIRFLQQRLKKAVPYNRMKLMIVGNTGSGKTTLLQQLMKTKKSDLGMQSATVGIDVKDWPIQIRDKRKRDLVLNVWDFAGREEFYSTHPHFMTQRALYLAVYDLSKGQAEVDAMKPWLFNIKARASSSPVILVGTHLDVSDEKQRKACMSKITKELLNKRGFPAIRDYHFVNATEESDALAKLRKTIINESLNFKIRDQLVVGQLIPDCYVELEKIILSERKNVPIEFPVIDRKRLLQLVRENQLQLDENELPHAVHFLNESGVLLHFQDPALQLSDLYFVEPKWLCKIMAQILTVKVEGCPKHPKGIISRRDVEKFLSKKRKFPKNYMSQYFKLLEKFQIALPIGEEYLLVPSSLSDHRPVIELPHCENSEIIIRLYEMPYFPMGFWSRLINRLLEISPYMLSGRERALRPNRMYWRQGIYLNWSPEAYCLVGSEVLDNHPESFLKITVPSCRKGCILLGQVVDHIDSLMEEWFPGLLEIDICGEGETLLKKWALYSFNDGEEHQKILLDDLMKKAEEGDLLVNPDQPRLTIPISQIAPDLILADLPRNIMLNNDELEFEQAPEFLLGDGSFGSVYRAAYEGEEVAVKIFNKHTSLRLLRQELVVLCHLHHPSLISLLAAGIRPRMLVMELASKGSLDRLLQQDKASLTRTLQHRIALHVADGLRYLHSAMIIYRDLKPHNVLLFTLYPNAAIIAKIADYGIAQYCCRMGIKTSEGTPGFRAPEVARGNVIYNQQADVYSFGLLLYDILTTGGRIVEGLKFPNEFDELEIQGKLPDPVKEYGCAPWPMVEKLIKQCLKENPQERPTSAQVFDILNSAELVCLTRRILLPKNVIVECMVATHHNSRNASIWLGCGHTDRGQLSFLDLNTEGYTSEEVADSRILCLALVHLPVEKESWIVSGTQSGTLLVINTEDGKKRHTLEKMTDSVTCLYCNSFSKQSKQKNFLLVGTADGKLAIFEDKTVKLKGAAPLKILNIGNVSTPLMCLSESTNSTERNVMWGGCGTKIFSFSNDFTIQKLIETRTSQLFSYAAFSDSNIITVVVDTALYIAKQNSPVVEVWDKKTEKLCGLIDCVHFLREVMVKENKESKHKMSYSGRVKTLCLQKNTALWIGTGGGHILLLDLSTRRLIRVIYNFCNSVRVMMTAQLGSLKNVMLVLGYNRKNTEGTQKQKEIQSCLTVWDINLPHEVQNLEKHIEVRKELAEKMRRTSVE

IC50	SMILES
≤ 100 nM	Cc1c2c(nn1C1CCCOC1)OCCCNc1nc(ncc1Cl)N2 (single isomer, unassigned) [E11, 14-Chloro-4-methyl-5-(oxan-3-yl)-8-oxa-2,5,6,12,16,17-hexaaza tricyclo-[11.3.1.0^3,7]heptadeca-1(16),3,6,13(17),14-pentaene]
≤ 10000 nM	CCC1CCOc2nn(C3CCOCC3)c(C)c2Nc2ncc(Cl)c(n2)N1 (single isomer, unassigned) [E19, 14-chloro-11-ethyl-4-methyl-5-(oxan-4-yl)-8-oxa-2,5,6,12,16,17-hexaazatricyclo[11.3.1.0^3,7]heptadeca-1(16),3,6,13(17),14-pentaene]
≤ 10000 nM	Cc1c2c(nn1C1CCOCC1F)OCCC(C)Nc1nc(ncc1Cl)N2 (single isomer, unassigned) [E26, 14-chloro-5-(3-fluorooxan-4-yl)-4,11-dimethyl-8-oxa-2,5,6,12,16,17-hexaazatricyclo [11.3.1.0^3,7]heptadeca-1(17),3,6,13,15-pentaene]
≤ 100 nM	Cc1c2c(nn1C1CCOCC1F)OCCC(C)Nc1nc(ncc1Cl)N2 (single isomer, unassigned) [E28, 14-chloro-5-(3-fluorooxan-4-yl)-4,11-dimethyl-8-oxa-2,5,6,12,16,17-hexaazatricyclo [11.3.1.0^3,7]heptadeca-1(17),3,6,13,15-pentaene]
≤ 10000 nM	Cc1c2c(nn1C1CCOCC1)OCCC(C)Nc1nc(ncc1Br)N2 (single isomer, unassigned) [E29, 14-bromo-4,11-dimethyl-5-(oxan-4-yl)-8-oxa-2,5,6,12,16,17-hexaaza tricyclo[11.3.1.0^3,7]heptadeca-1(16),3,6,13(17),14-pentaene]
≤ 100 nM	Cc1c2c(nn1C1CCOCC1)OCC(C)C(C)Nc1nc(ncc1Cl)N2 (single isomer, unassigned) [E31, 14-chloro-4,10,11-trimethyl-5-(oxan-4-yl)-8-oxa-2,5,6,12,16,17-hexaazatricyclo [11.3.1.0^3,7]heptadeca-1(16),3,6,13(17),14-pentaene]
≤ 10000 nM	Cc1c2c(nn1C1CCOCC1)OCC(C)C(C)Nc1nc(ncc1Cl)N2 (single isomer, unassigned) [E33, 14-chloro-4,10,11-trimethyl-5-(oxan-4-yl)-8-oxa-2,5,6,12,16,17-hexaazatricyclo [11.3.1.0^3,7]heptadeca-1(16),3,6,13(17),14-pentaene]
≤ 10000 nM	Cc1c2c(nn1C1CCOCC1)OCC(C)C(C)Nc1nc(ncc1Cl)N2 (single isomer, unassigned) [E34, 14-chloro-4,10,11-trimethyl-5-(oxan-4-yl)-8-oxa-2,5,6,12,16,17-hexaazatricyclo [11.3.1.0^3,7]heptadeca-1(16),3,6,13(17),14-pentaene]
≤ 100 nM	COCC1CCOc2nn(C3CCOCC3)c(C)c2Nc2ncc(Cl)c(n2)N1 (single isomer, unassigned) [E36, 14-chloro-11-(methoxymethyl)-4-methyl-5-(oxan-4-yl)-8-oxa-2,5,6, 12,16,17-hexaazatricyclo-[11.3.1.0^3,7]heptadeca-1(16),3,6,13(17),14-pentaene]
≤ 10000 nM	Cc1c2c(nn1C(C)(C)C#N)OCCC(C)Nc1nc(ncc1Cl)N2 (single isomer, unassigned) [E43, 2-{14-chloro-4,11-dimethyl-8-oxa-2,5,6,12,16,17-hexaazatricyclo [11.3.1.0^3,7]heptadeca-1(16),3,6,13(17),14-pentaen-5-yl}-2-methylpropanenitrile]
≤ 100 nM	Cc1c2c(nn1C1CCC(N3C[C@H]4C[C@@H]3CO4)CC1)OCCCNc1nc(ncc1Cl)N2 (single isomer, unassigned) [E49]
≤ 100 nM	Cc1c2c(nn1C1CCC(N3C[C@@H]4C[C@H]3CO4)CC1)OCCCNc1nc(ncc1Cl)N2 (single isomer, unassigned) [E51]
≤ 10000 nM	Cc1c2c(nn1C1CCOCC1)OCCC(CF)Nc1nc(ncc1Cl)N2 (single isomer, unassigned) [E53, 14-chloro-11-(fluoromethyl)-4-methyl-5-(oxan-4-yl)-8-oxa-2,5,6,12, 16,17-hexaazatricyclo[11.3.1.0^3,7]heptadeca-1(16),3,6,13(17),14-pentaene]
≤ 10000 nM	Cc1c2c(nn1C1CCC(N3C[C@H]4C[C@@H]3CO4)CC1)OCCC(C)Nc1nc(ncc1Cl)N2 (single isomer, unassigned) [E56]
≤ 100 nM	Cc1c2c(nn1C1CCC(N3C[C@H]4C[C@@H]3CO4)CC1)OCCC(C)Nc1nc(ncc1Cl)N2 (single isomer, unassigned) [E58]
≤ 100 nM	COCCN1CCC(n2nc3c(c2C)Nc2ncc(Cl)c(n2)NCCCO3)C(F)C1 (single isomer, unassigned) [E60, trans-14-chloro-5-[3-fluoro-1-(2-methoxyethyl)piperidin-4-yl]-4-methyl-8-oxa-2,5,6,12,16,17-hexaazatricyclo[11.3.1.0^3,7]heptadeca 1(16),3,6,13(17),14-pentaene]
≤ 100 nM	Cc1c2c(nn1C1CCN(C3COC3)CC1F)OCCCNc1nc(ncc1Cl)N2 (single isomer, unassigned) [E62, trans-14-chloro-5-[3-fluoro-1-(oxetan-3-yl)piperidin-4-yl]-4-methyl-8-oxa-2,5,6,12,16,17-hexaazatricyclo[11.3.1.0^3,7]heptadeca-1(16),3,6,13(17),14-pentaene]
≤ 10000 nM	Cc1c2c(nn1C1CCOCC1)OCC(F)C(C)Nc1nc(ncc1Cl)N2 (single isomer, unassigned) [E63, 14-Chloro-10-fluoro-4,11-dimethyl-5-(oxan-4-yl)-8-oxa-2,5,6,12, 16,17-hexaazatricyclo[11.3.1.0^3,7]heptadeca-1(16),3,6,13(17),14-pentaene]
≤ 100 nM	Cc1c2c(nn1C1CCCN(C3COC3)C1)OCC[C@@H](C)Nc1nc(ncc1Cl)N2 (single isomer, unassigned) [E68]
≤ 100 nM	Cc1c2c(nn1C1CCOC(C)C1)OCCC(C)Nc1nc(ncc1Cl)N2 (single isomer, unassigned) [E84, 14-chloro-4,11-dimethyl-5-(2-methyloxan-4-yl)-8-oxa-2,5,6,12, 16,17-hexaazatricyclo[11.3.1.0^3,7]heptadeca-1(16),3,6,13(17),14-pentaene]
≤ 10000 nM	Cc1c2c(nn1C1CCOCC1)OCCC(C(F)F)Nc1nc(ncc1Cl)N2 (single isomer, unassigned) [E89, 14-chloro-11-(difluoromethyl)-4-methyl-5-(oxan-4-yl)-8-oxa-2,5,6, 12,16,17-hexaazatricyclo[11.3.1.0^3,7]heptadeca-1(16),3,6,13(17),14-pentaene]
≤ 100 nM	Cc1c2c(nn1C1CCC(N3C[C@@H]4C[C@H]3CO4)CC1)OCCC(C)Nc1nc(ncc1Cl)N2 (single isomer, unassigned) [E105]
≤ 100 nM	Cc1c2c(nn1C1CCOCC1)OC(C)CCNc1nc(ncc1Cl)N2 (single isomer, unassigned) [E114, 14-chloro-4,9-dimethyl-5-(oxan-4-yl)-8-oxa-2,5,6,12,16,17-hexaazatricyclo[11.3.1.0^3,7]heptadeca-1(16),3,6,13(17),14-pentaene]
≤ 10000 nM	COC1CNc2nc(ncc2C(F)(F)F)Nc2c(nn(C3CCOCC3)c2C)OC1 (single isomer, unassigned) [E120, 10-methoxy-4-methyl-5-(oxan-4-yl)-14-(trifluoromethyl)-8-oxa-2,5,6,12,16,17-hexaazatricyclo[11.3.1.0^3,7] heptadeca-1(16),3,6,13(17),14-pentaene]
